Here are results for eight compounds from patent publication US11168089B2, “Fused pyrimidine derivatives as A2A / A2B inhibitors” (Incyte Corporation, priority 2018, dated 2021).

SMILES strings stand for the structures. Where only a bound is given, the exact number is not on record here.

Assay [1] addresses Adenosine A2A receptor (Homo sapiens (Human), UniProt P29274). In words: A2A Tag-Lite HTRF assay. The class given is binding. The conditions noted are these: Tag-Lite Adenosine A2A labeled cells, displacement of A2A Receptor Red antagonist fluorescent ligand 12.5 nM; read-out: A2A_Ki. The source says:
Example C. A2A Tag-Lite® HTRF Assay
The final concentration of DMSO was 1%.
In general terms: TR-FRET usually uses a lanthanide donor and a delayed reading to cut background.

Assay [2] concerns the target human adenosine A2B receptor (Homo sapiens (Human), UniProt P29275). In words: Adenosine A2B Receptor Cyclic AMP GS Assay. In kind it is cell-based. The conditions noted are these: HEK-293 cells expressing human A2B receptor, agonist NECA 12 nM, cAMP accumulation; read-out: A2B_cAMP_EC50. The procedure:
Example B. Adenosine A2B Receptor Cyclic AMP GS Assay
Stably transfected HEK-293 cells expressing the human adenosine A2B receptor (Perkin Elmer) were maintained in MEM culture medium with 10% FBS and 100 μg/mL Geneticin (Life Technologies). 18 to 24 hours prior to assay, geneticin was removed from culture. The cisbio cAMP-GS Dynamic kit utilizing the FRET (Fluorescence Resonance Energy Transfer) technology was used to measure cAMP accumulation in the cells. Compounds of the present disclosure at an appropriate concentration were mixed with 10000 cells/well in white 96 well half area plates (Perkin Elmer) for 30 min at room temperature gently shaking. Agonist, NECA (R&D Technologies) at 12 nM was added to each well for 60 min at room temperature gently shaking. Detection reagents, d2-labeled cAMP (acceptor) and anti-cAMP cryptate (donor) were added to each well for 60 min at RT gently shaking. Plates were read on Pherastar (BMG Labtech), fluorescence ratio 665/620 was calculated and EC50 determination was performed by fitting the curve of percent of control versus the log of the compound concentration using GraphPad Prism.
(In general: Cyclic AMP is a second messenger, typically raised through Gs and lowered through Gi signalling.)

Sequence of human adenosine A2B receptor (P29275 whole entry): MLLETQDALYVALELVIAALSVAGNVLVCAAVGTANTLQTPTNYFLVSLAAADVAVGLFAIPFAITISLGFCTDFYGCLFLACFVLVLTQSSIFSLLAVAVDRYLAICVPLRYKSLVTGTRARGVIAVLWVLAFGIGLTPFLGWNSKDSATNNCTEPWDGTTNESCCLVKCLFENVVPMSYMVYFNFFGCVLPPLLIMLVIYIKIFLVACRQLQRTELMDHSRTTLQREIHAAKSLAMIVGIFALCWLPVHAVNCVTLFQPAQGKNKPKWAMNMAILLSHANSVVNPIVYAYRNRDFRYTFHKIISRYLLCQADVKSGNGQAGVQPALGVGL
Sequence of Adenosine A2A receptor (P29274 whole entry): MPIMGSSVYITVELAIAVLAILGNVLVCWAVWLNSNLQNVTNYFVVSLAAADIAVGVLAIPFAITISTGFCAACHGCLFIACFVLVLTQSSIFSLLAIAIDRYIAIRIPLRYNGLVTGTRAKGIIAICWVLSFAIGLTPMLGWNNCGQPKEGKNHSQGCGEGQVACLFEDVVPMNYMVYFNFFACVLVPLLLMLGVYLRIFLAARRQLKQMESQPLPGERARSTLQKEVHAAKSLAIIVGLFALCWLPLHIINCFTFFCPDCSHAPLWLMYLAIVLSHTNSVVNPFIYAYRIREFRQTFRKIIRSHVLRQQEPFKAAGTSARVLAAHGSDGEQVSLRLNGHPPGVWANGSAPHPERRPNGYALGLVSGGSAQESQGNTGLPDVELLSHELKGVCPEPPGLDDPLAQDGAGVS

Consider `N#Cc1cccc(-c2cc3nc(Cc4c(F)cccc4CN4CC[C@H](C#N)C4)nn3c(N)n2)c1F` [Example 27, (S)-1-(2-((5-Amino-7-(3-cyano-2-fluorophenyl)-[1,2,4]triazolo[1,5-c]pyrimidin-2-yl)methyl)-3-fluorobenzyl)pyrrolidine-3-carbonitrile], for which, in assay [1], the Ki was less than 10 nM. In addition, the EC50 in assay [2] is 10 to 100 nM.

For `CN1CCC2(CN(Cc3cccc(F)c3Cc3nc4cc(-c5cccc(C#N)c5F)nc(N)n4n3)C2)C1=O` [Example 28, 3-(5-Amino-2-(2-fluoro-6-((6-methyl-5-oxo-2,6-diazaspiro[3.4]octan-2-yl)methyl)benzyl)-[1,2,4]triazolo[1,5-c]pyrimidin-7-yl)-2-fluorobenzonitrile], in assay [1], the Ki is less than 10 nM. In addition, in assay [2], the EC50 is 10 to 100 nM.

As to `CN1CCC(NCc2cccc(F)c2Cc2nc3cc(-c4cccc(C#N)c4F)nc(N)n3n2)C1=O` (stereo not shown) [Example 29, 3-(5-Amino-2-(2-fluoro-6-(((1-methyl-2-oxopyrrolidin-3-yl)amino)methyl)benzyl)-[1,2,4]triazolo[1,5-c]pyrimidin-7-yl)-2-fluorobenzonitrile], the Ki in assay [1] was less than 10 nM. The EC50 in assay [2] lay in the range of 10 to 100 nM.

As to `CCN(Cc1cccc(F)c1Cc1nc2cc(-c3cccc(C#N)c3F)nc(N)n2n1)C1CCN(CC(=O)O)C1=O` (stereo not shown) [Example 30, 2-(3-((2-((5-Amino-7-(3-cyano-2-fluorophenyl)-[1,2,4]triazolo[1,5-c]pyrimidin-2-yl)methyl)-3-fluorobenzyl)(ethyl)amino)-2-oxopyrrolidin-1-yl)acetic acid], the Ki in assay [1] was less than 10 nM. For the same compound, the EC50 in assay [2] is less than 10 nM.

Regarding `CCN(Cc1cccc(F)c1Cc1nc2cc(-c3cccc(C#N)c3F)nc(N)n2n1)C1CCN(C)C1=O` (stereo not shown) [Example 31, 3-(5-Amino-2-(2-((ethyl(1-methyl-2-oxopyrrolidin-3-yl)amino)methyl)-6-fluorobenzyl)-[1,2,4]triazolo[1,5-c]pyrimidin-7-yl)-2-fluorobenzonitrile], the Ki in assay [1] was less than 10 nM. Further, the EC50 in assay [2] is less than 10 nM.

Consider `CCN(Cc1cccc(F)c1Cc1nc2cc(-c3cccc(C#N)c3F)nc(N)n2n1)[C@@H]1CCNC1=O` [Example 32, (R)-3-(5-Amino-2-(2-((ethyl(2-oxopyrrolidin-3-yl)amino)methyl)-6-fluorobenzyl)-[1,2,4]triazolo[1,5-c]pyrimidin-7-yl)-2-fluorobenzonitrile], for which the Ki in assay [1] was less than 10 nM. For the same compound, the EC50 in assay [2] was in the range of 10 to 100 nM.

With `N#Cc1cccc(-c2cc3nc(NCc4cccc(-c5cnn(C6CCNCC6)c5)n4)nn3c(N)n2)c1F` [Example 33, 3-(5-Amino-2-(((6-(1-(piperidin-4-yl)-1H-pyrazol-4-yl)pyridin-2-yl)methyl)amino)-[1,2,4]triazolo[1,5-c]pyrimidin-7-yl)-2-fluorobenzonitrile], the Ki in assay [1] is less than 10 nM. In assay [2], the EC50 is less than 10 nM.

In the case of `N#Cc1cccc(-c2cc3nc(NCc4cccc(-c5cnn(CCN6CCOCC6)c5)n4)nn3c(N)n2)c1F` [Example 34, 3-(5-Amino-2-(((6-(1-(2-morpholinoethyl)-1H-pyrazol-4-yl)pyridin-2-yl)methyl)amino)-[1,2,4]triazolo[1,5-c]pyrimidin-7-yl)-2-fluorobenzonitrile], in assay [1], the Ki is less than 10 nM. Besides, in assay [2], the EC50 lay within 10 to 100 nM.
